Laboratory results taken from paper PMC6896740, “Safety, tolerability, pharmacokinetics, and pharmacodynamics of PF-06650833, a selective interleukin-1 receptor-associated kinase 4 (IRAK4) inhibitor, in single and multiple ascending dose randomized phase 1 studies in healthy subjects” (Arthritis Research & Therapy, 2019).

Key:
healthy adult subjects = experiment: Study 1 (SAD) safety and tolerability: TEAEs; assay type: in vivo
Description: (§1) Study 1 (B7921001; NCT02224651) was a 96-day, phase 1, within-cohort, randomized, double-blind, sponsor-open, placebo-substitution, five-period crossover, SAD study in healthy adult subjects (Fig. 1a). Subjects were sequentially enrolled into four cohorts of ten subjects each. Within each cohort, the subjects were randomized into a maximum of five periods. Within each period, eight subjects and two subjects were randomized to receive PF-06650833 and placebo, respectively. In this placebo-substitution design, all subjects within a cohort received one or more doses of PF-06650833 and/or placebo. Single oral doses of PF-06650833 IR formulations from 1 to 6000 mg, and MR formulations from 30 to 300 mg, were administered in fasted (overnight fast of ≥ 10 h) and/or fed (high-fat breakfast meal) states. Doses were escalated sequentially by period within each cohort (see Fig. 1a for final dosing scheme), based upon the evaluation of ≥ 48 h of safety and tolerability for all subjects and ≥ 8 h of PK data for at least six subjects receiving PF-06650833 and one subject receiving placebo. Dose escalation was to cease when either the limits of safety and/or tolerability were reached, the projected exposure at the subsequent dose exceeded the toxicokinetic limit (TK) established based on the no observable adverse effect level (NOAEL) in relevant animal studies, or a plateau in exposure was reached.
(§2) The effects of food on the plasma PK profile of the IR and MR formulations were explored in cohorts 1 and 3, respectively, by administering 30 mg doses of PF-06650833 in a fasted state and after a high-fat meal. A 1000-mg dose of the IR formulation was also tested in cohort 3 in an attempt to identify a maximum tolerated dose (MTD). Since TK limits were not reached with the IR formulation at doses up to 1000 mg, the IR doses were escalated to 2000 and 6000 mg with a high-fat meal in cohort 4 (Fig. 1a).
Safety assessments included incidence and severity of treatment-emergent AEs (TEAEs) and discontinuation due to TEAEs, incidence of treatment-emergent clinical laboratory abnormalities, and proportion of subjects meeting with pre-defined criteria for potential clinical concern in vital signs and electrocardiogram (ECG) parameters.
The safety analysis set was defined as all subjects who received at least one dose of study treatment, and data were summarized descriptively. The PK concentration analysis set was defined as all enrolled, treated subjects who had at least one concentration in at least one treatment period. The PK parameter analysis set was defined as all enrolled, treated subjects who had at least one of the PK parameters of interest in at least one treatment period. The PD analysis set was defined as all enrolled subjects who received at least one dose of PF-06650833 and had at least one PD parameter. PK/PD data were summarized descriptively.

clinical = settings: human, in vivo; for AUC(0-t): AUClast; for Tmax: median (range); for Vd/F: Vz/F
Description: as §1, §2
For both studies, samples of blood (and urine in study 2) were taken for evaluation of PK/PD parameters (see Additional file 1: Supplemental Methods). PK samples were obtained at the nominal time relative to dosing (± 10%). Plasma and urine samples were analyzed using validated, sensitive, and specific liquid chromatography tandem mass spectrometric methods (at Pfizer Inc., Groton, CT, USA, for study 1 and at Worldwide Pharmacokinetics, Dynamics and Metabolism, Cambridge, MA, USA, for study 2). The lower limit of quantification for PF-06650833 in plasma was 0.0500 ng/mL. The lower limit of quantification for PF-06650833 in urine was 1.00 ng/mL. Serum samples were also analyzed for hsCRP, and plasma samples were analyzed for 4β-hydroxycholesterol and cholesterol.
PK parameters were calculated using non-compartmental analysis of concentration-time data. For study 1 only, data from cohort 1 (period 4 [IR 30 mg] versus period 5 [IR 30 mg + food]) and cohort 3 (period 2 [MR 30 mg] versus period 3 [MR 30 mg + food]) were used to estimate the effect of food intake. Cmax and AUC were calculated for each subject and treatment, with and without food, after which a within-subject difference could be found between fed (high-fat meal) and fasted doses. Analysis of covariance was used to model these within-subject differences and to calculate 95% confidence intervals (CIs) for the differences for each dose (IR 30 mg and MR 30 mg). For study 2 only, the amounts of PF-06650833 in urine and renal clearance were listed and summarized descriptively. As part of the routine safety laboratory monitoring, the presence of any atypical crystals in urine specimens was semi-quantitatively assessed microscopically by typical histopathologic methods and scored as numbers of crystals per high power field (hpf); higher abundance (moderate or many) was defined as ≥ 15/hpf. No formal interim analyses were conducted.
4 In both studies, subjects were assigned to dose groups according to a pre-defined
5 randomization schedule. Each subject was given a unique Electronic Data Capture […]

[1] = IR 2000 mg single dose, fed (high-fat), 8 evaluable

CC[C@@H]1[C@H](F)C(=O)N[C@@H]1COc1nccc2cc(C(N)=O)c(OC)cc12 [PF-06650833, 1-{[(2S,3S,4S)-3-Ethyl-4-fluoro-5-oxopyrrolidin-2-yl]methoxy}-7-methoxyisoquinoline-6-carboxamide]
Infections and infestations: subjects with AE, all causalities (treatment-related) (healthy adult subjects; IR 1 mg single dose, fasted, 8 evaluable): 1 (0)
Infections and infestations: subjects with AE, all causalities (treatment-related) (healthy adult subjects; [1]): 1 (0)
Upper respiratory tract infection: subjects with AE, all causalities (treatment-related) (healthy adult subjects; [1]): 1 (0)
Serious AEs or deaths (healthy adult subjects; all dose groups): No serious AEs or deaths
Subjects with treatment-related TEAEs (healthy adult subjects; human, in vivo): 4
Total treatment-related TEAEs (healthy adult subjects; human, in vivo): 10
Severity of TEAEs (healthy adult subjects; in vivo): mild or moderate
Treatment-related TEAEs (healthy adult subjects; in vivo): No treatment-related TEAEs
Maximum tolerated dose (healthy adult subjects; single doses IR up to 6000 mg, MR up to 300 mg): not established
Mean terminal half-life t½ (clinical): 9.4 to 11.7 h
CL/F, geometric mean (%CV) (clinical; 1 mg): 194.3 (37) L/h
AUC(0-inf) (clinical; 1 mg, AUCinf, geometric mean (%CV)): 0.00514 µg·h/mL
AUC(0-t) (clinical; 1 mg, geometric mean (%CV)): 0.00492 µg·h/mL
Cmax (clinical; 1 mg, geometric mean (%CV)): 0.00175 µg/mL
MRT (clinical; 1 mg, mean ± SD): 3.12 ± 0.525 h
Tmax (clinical; 1 mg): 1 h
Vd/F (clinical; 1 mg, geometric mean (%CV)): 517 L
half-life (clinical; 1 mg, t½, mean ± SD): 1.86 ± 0.24 h
CL/F, geometric mean (%CV) (clinical; 3 mg): 173.1 (49) L/h
AUC(0-inf) (clinical; 3 mg, AUCinf, geometric mean (%CV)): 0.0173 µg·h/mL
AUC(0-t) (clinical; 3 mg, geometric mean (%CV)): 0.017 µg·h/mL
Cmax (clinical; 3 mg, geometric mean (%CV)): 0.00554 µg/mL
MRT (clinical; 3 mg, mean ± SD): 3.4 ± 0.622 h
Tmax (clinical; 3 mg): 0.525 h
Vd/F (clinical; 3 mg, geometric mean (%CV)): 567 L
half-life (clinical; 3 mg, t½, mean ± SD): 2.34 ± 0.67 h
CL/F, geometric mean (%CV) (clinical; 10 mg): 121.0 (48) L/h
AUC(0-inf) (clinical; 10 mg, AUCinf, geometric mean (%CV)): 0.0827 µg·h/mL
AUC(0-t) (clinical; 10 mg, geometric mean (%CV)): 0.0819 µg·h/mL
Cmax (clinical; 10 mg, geometric mean (%CV)): 0.0226 µg/mL
MRT (clinical; 10 mg, mean ± SD): 4.31 ± 0.787 h
Tmax (clinical; 10 mg): 1 h
Vd/F (clinical; 10 mg, geometric mean (%CV)): 618 L
half-life (clinical; 10 mg, t½, mean ± SD): 3.54 ± 0.139 h
AUCinf (food-effect analysis) (clinical; 30 mg): 0.2113 µg·h/mL
AUCinf, geometric mean (%CV) (clinical; 30 mg): 206.4 (29) ng•h/mL
AUClast, geometric mean (%CV) (clinical; 30 mg): 203.7 (29) ng•h/mL
AUC(0-inf) (clinical; 30 mg, AUCinf (food-effect analysis)): 0.261 µg·h/mL
AUC(0-inf) (clinical; 30 mg, AUCinf, geometric mean (%CV)): 0.263 µg·h/mL
AUC(0-t) (clinical; 30 mg, geometric mean (%CV)): 0.249 µg·h/mL
AUCinf, geometric mean (%CV) (clinical; 100 mg): 646.4 (48) ng•h/mL
AUClast, geometric mean (%CV) (clinical; 100 mg): 549.4 (38) ng•h/mL
MRT, mean ± SD (clinical; 100 mg): 11.2 ± 4.81 h
t½, mean ± SD (clinical; 100 mg): 15.0 ± 5.22 h
AUC(0-inf) (clinical; 100 mg, AUCinf, geometric mean (%CV)): 0.839 µg·h/mL
AUC(0-t) (clinical; 100 mg, geometric mean (%CV)): 0.762 µg·h/mL
MRT (clinical; 100 mg, mean ± SD): 19.3 ± 5.73 h
half-life (clinical; 100 mg, t½, mean ± SD): 9.35 ± 3.62 h
AUCinf, geometric mean (%CV) (clinical; 300 mg): 1477 (71) ng•h/mL
AUClast, geometric mean (%CV) (clinical; 300 mg): 1436 (57) ng•h/mL
Tmax, median (range) (clinical; 300 mg): 2 (0.500–2.00) h
Vz/F, geometric mean (%CV) (clinical; 300 mg): 5310 (69) L
t½, mean ± SD (clinical; 300 mg): 19.9 ± 9.54 h
AUC(0-inf) (clinical; 300 mg, AUCinf, geometric mean (%CV)): 2.04 µg·h/mL
AUC(0-t) (clinical; 300 mg, geometric mean (%CV)): 1.97 µg·h/mL
Tmax (clinical; 300 mg): 4 h
Vd/F (clinical; 300 mg, geometric mean (%CV)): 6820 L
half-life (clinical; 300 mg, t½, mean ± SD): 38.8 ± 21.1 h
CL/F, geometric mean (%CV) (clinical; 1000 mg): 411.4 (40) L/h
AUC(0-inf) (clinical; 1000 mg, AUCinf, geometric mean (%CV)): 2.43 µg·h/mL
AUC(0-t) (clinical; 1000 mg, geometric mean (%CV)): 2.27 µg·h/mL
Cmax (clinical; 1000 mg, geometric mean (%CV)): 0.309 µg/mL
MRT (clinical; 1000 mg, mean ± SD): 18.7 ± 4.37 h
Tmax (clinical; 1000 mg): 0.75 h
Vd/F (clinical; 1000 mg, geometric mean (%CV)): 14600 L
half-life (clinical; 1000 mg, t½, mean ± SD): 44.9 ± 69.6 h
half-life (clinical; Mean terminal half-life t½): 10.2 to 15 h
